Results published in PMC11451730, “A Fragment-Based Screen for Inhibitors of Escherichia coli N5-CAIR Mutase” (Research Square, 2024).
pKi: −log10 of the molar value.

Tests used:
E. coli N5-CAIR mutase [1] = target: T1, E. coli N5-CAIR mutase (Escherichia coli, UniProt P0AG18); assay: biochemical; format: biochemical
T1 construct: His-tag (inferred from cobalt-resin/imidazole purification); made in house; host or cells: E. coli BL21(DE3), plasmid pJK057 (Addgene)
T1 sequence (P0AG18 1-169): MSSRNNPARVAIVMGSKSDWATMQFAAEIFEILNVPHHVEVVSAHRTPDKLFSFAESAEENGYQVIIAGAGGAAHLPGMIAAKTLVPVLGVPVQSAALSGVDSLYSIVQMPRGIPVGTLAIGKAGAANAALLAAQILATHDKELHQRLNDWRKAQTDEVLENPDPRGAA

bacterial N5-CAIR mutase = conditions: bacterial enzyme; cited from earlier work
E. coli N5-CAIR mutase [2] = target: T1, E. coli N5-CAIR mutase; assay: Thermal shift assay (thermal binding assay); conditions: NAIR 20 μM, eight replicates; enzyme alone 57 ± 0.36°C
[3] = target: Gallus gallus AIR carboxylase; conditions: cited from earlier work
[4] = test system: Gallus gallus AIR carboxylase; assay: Inhibition of AIR carboxylase by NAIR (literature); format: biochemical

## CN1CCCC(c2cnc(-c3ncco3)cn2)C1 (stereo not drawn) [Compound 2]
E. coli N5-CAIR mutase [1]
  pKi: 5.32
  mechanism of inhibition: sigmoidal Michaelis-Menten curve

## Cc1cnc(-c2ccc(C3CCCNC3)nc2)s1 (stereo not drawn) [Compound 9]
E. coli N5-CAIR mutase [1]
  pKi: 4.08
  mechanism of inhibition: competitive

## CN1CCCC(Cc2cccnc2)C1 (stereo not drawn) [Compound 10]
E. coli N5-CAIR mutase [1]
  inhibition of enzyme activity: no inhibition

## Cc1nc(-c2ccc(C3CCCN3)nc2)sc1C (stereo not drawn) [Compound 22]
E. coli N5-CAIR mutase [1]
  pKi: 3.80
  mechanism of inhibition: uncompetitive

## c1cnc(CC2CCNC2)nc1 (stereo not drawn) [Compound 25]
E. coli N5-CAIR mutase [1]
  pKi: 4.51
  mechanism of inhibition: non-competitive

## Cc1ccc(Nc2nnns2)cc1 [Compound 34, reference compound]
E. coli N5-CAIR mutase [1]
  inhibition of E. coli N5-CAIR mutase: do not show inhibition

## CCc1ccc(C(=O)Nc2nncs2)s1 [Compound 35, reference compound]
E. coli N5-CAIR mutase [1]
  inhibition of E. coli N5-CAIR mutase: do not show inhibition

## Nc1c([N+](=O)[O-])ncn1[C@@H]1O[C@H](COP(=O)(O)O)[C@@H](O)[C@H]1O [NAIR, 4-nitro-5-aminoimidazole ribonucleotide]
Bacterial N5-CAIR mutase
  pKi: 6.30
E. coli N5-CAIR mutase [2]
  average melting temperature of N5-CAIR mutase with compound bound: 75 ± 0.32 °C
[3]
  pKi: 9.47
[4]
  selectivity for AIR carboxylase over N5-CAIR mutase: 1000 fold
